Experimental data published in US12630600B2 (MEDIMMUNE LIMITED, priority 2022, dated 2026).
Where two headings read alike, the source gives them in different places. Starred links: 1 amine or outer side, 2 acyl side, 3 side chain; linkers in the order of their positions; H or OH if unused. Non-standard residues stand in square brackets, D forms with d. Residues, ends and D or L forms follow the SMILES beside them. Groups on a side chain read outwards from the residue. No end group written: not given here. *: point of attachment. C18 diacid = O=C(O)CCCCCCCCCCCCCCCCC(=O)*; γGlu = O=C(O)[C@H](CCC(=O)[*:2])N[*:1]; αMeF = C[C@](N)(Cc1ccccc1)C(=O)O; AEEA = NCCOCCOCC(=O)O; Aib = CC(C)(N)C(=O)O

What was measured:
Male C57Bl/6 mice = assay: Mouse acute food intake study; format: in vivo; conditions: s.c., dose 10 nmol/kg, food intake at 24 h vs vehicle
Description: Male C57Bl/6 mice obtained from Jackson Laboratories or Charles River at 8-9 weeks of age and were housed one per cage in BioDaq (Research Diets) cages. Mice were placed on Alpha Dri bedding, standard chow diet (Envigo, 2018) and given water pouches. Mice were allowed to acclimate for 1-2 weeks. Body weight was measured to ensure appropriate acclimation. After acclimation, mice were sham dosed a minimum of 2 times prior to initiation of food intake study. On study day, mice were placed in clean cage bottoms, weighed, and fasted for 6-8 hours. Mice were sorted into groups based on average 24-hour food intake data and body weight. 1-2 hours prior to lights out, mice were dosed subcutaneously with one vehicle or test peptide dissolved in an appropriate vehicle at 5 mL/kg. Mice were left undisturbed and allowed access to food and water for 48 hours. Automated food intake was monitored in the BioDaq system was monitored during this time. Discrete food intake data was exported into MS Excel from which cumulative food intake data was generated and analyzed.

[1] = test system: T1, porcine pancreatic pepsin; assay: Proteolytic resistance to FasSSGF containing porcine pancreatic pepsin; format: in vitro ADME; conditions: pig, simulated gastric fluid
T1 construct: purchased Sigma P7012
Description: (§1) Lyophilized porcine pancreatic pepsin (Sigma: P7012) was reconstituted to 0.5 mg/mL (˜2500 units/mL) in freshly prepared FasSSGF (Biorelevant media) to give the enzyme stock solution. Peptide stock solution was prepared to a concentration of 250 μM (˜1.0 mg/mL) in FasSSGF. 200 μL ([…], ˜250 units) of pepsin stock solution was added to 200 μL of peptide solution (1.0 mg/mL, ˜100 μg of peptide, ˜25 nmoles) and the mixture was co-incubated in a temperature-regulated incubator at 37° C. for the duration of the experiment. 30 μL aliquot of the peptide-enzyme mixture was periodically withdrawn (t=0, 5, 10, 15, and 30 min) and quenched immediately by addition of 80 μL of 0.1 M ammonium bicarbonate solution in water/acetonitrile (4:1, pH 8) to arrest proteolytic activity. 30 μL aliquot was analyzed by analytical RP-HPLC. Analytical RP-HPLC method: Agilent Polaris C8-A column (4.6×100 mm, 3 micron) eluted with a linear binary gradient of 10-90°/MeCN (0.1% TFA v/v) in water (0.1% TFA v/v) over either 10 or 15 mins at 1.5 mL min-1 at 40° C. with detection by UV absorption at 210 nm. Manual integration (AUC) allowed estimation of remaining intact peptide over the time course of the experiment.

neprilysin = target: T2, neprilysin (Homo sapiens, UniProt P08473); assay: Proteolytic resistance to neprilysin; format: in vitro ADME; conditions: pH 8.3
T2 construct: purchased R&D Systems 1182-ZNC-010
Method in brief: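 Peptide (~250 µM stock) was mixed 1:1 with recombinant neprilysin (100 µg/mL stock) in Tris/NaCl/NaHCO3 buffer, pH 8.3, at 37 °C. Aliquots taken at 0, 30 min, 1, 2, 4 and 24 h were TFA-quenched. Intact peptide remaining was estimated by RP-HPLC peak area at 210 nm.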

wildtype (WT) mice = assay: Glucose change in wildtype mice; format: in vivo, mouse; conditions: s.c., 1.5 nmol/kg, somatostatin pretreatment 30 min prior to cpd
Method in brief: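 Chow-fed wildtype mice, 8-14 weeks old, n=4-8/group, fasted 2 h before peptide injection, in some studies after octreotide 10 mg/kg 30 min before dosing. Blood glucose by glucometer at −30, 0, 30, 60, 120, 180, 240 and 360 min; mice reused up to 3 times with ≥1-week washout.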

[2] = target: T3, porcine pancreatic pepsin (Sus scrofa, UniProt P00791); assay: Proteolytic resistance to FasSSGF containing porcine pancreatic pepsin; format: in vitro ADME; conditions: 0 min, FasSSGF with pepsin, 37° C.
T3 construct: purchased Sigma P7012
Description: as §1

Pancreatin = assay: Proteolytic resistance to fasted-state simulated intestinal fluid (FasSSIF/Pancreatin); format: in vitro ADME; conditions: 0 min, 37° C.
Description: A fresh suspension of FasSSIF/P (Fasted-State Simulated Intestinal Fluid+USP Pancreatin®) was prepared according to that described by Galia, Nicolaides, Hörter, Löbenberg, Reppas and Dressman: Pharm. Res. 15 (1998) 698-70.5, and USP XL requirements. The resulting preparation was used immediately without storage.
Peptide for evaluation (1.0 mg) was dissolved in pre-warmed FasSSIF without Pancreatin® (200 μL). To this fresh FasSSIF/Pancreatin® (100 μL) was added to initiate potential proteolysis. Following momentary vortexing of the reaction tube the mixture was incubated at 37° C. in a thermostatic water bath for the duration of the experiment. 25 μL aliquot of the co-incubated peptide-enzyme mixture was periodically withdrawn (t=0, 5, 10 15 and 30 min) and quenched immediately by addition to a solution of 10% TFA in 1:1 water/acetonitrile (75 μL) to arrest proteolytic activity. Quenched samples were centrifuged (7800 RPM, 3 mins) to pellet solids and 10 μL aliquots of the supernatant solution were analyzed using analytical RP-HPLC as follows: Analytical RP-HPLC method: Agilent Polaris C8-A column (4.6×100 mm, 3 micron) eluted with a linear binary gradient of 10-90% MeCN (0.1% TFA v/v) in water (0.1% TFA v/v) over either 10 or 15 mins at 1.5 mL min^−1 at 40° C. with detection by UV absorption at 210 nm. […]

human GLP-1 receptor [3] = target: T4, human GLP-1 receptor (human, UniProt P43220); assay: cell-based or functional assay
human glucagon receptor [4] = target: T5, human glucagon receptor (human, UniProt P47871); assay: cell-based or functional assay
human GLP-1 receptor [5] = target: human GLP-1 receptor (human, UniProt P43220); assay: cell-based or functional assay; remark: listed apart in the source
human glucagon receptor [6] = target: human glucagon receptor (human, UniProt P47871); assay: cell-based or functional assay; remark: listed apart in the source
human GLP-1 receptor [7] = target: T4, human GLP-1 receptor; assay: cell-based or functional assay; remark: listed apart in the source
human glucagon receptor [8] = target: T5, human glucagon receptor; assay: cell-based or functional assay; remark: listed apart in the source

T3 sequence (P00791 60-385): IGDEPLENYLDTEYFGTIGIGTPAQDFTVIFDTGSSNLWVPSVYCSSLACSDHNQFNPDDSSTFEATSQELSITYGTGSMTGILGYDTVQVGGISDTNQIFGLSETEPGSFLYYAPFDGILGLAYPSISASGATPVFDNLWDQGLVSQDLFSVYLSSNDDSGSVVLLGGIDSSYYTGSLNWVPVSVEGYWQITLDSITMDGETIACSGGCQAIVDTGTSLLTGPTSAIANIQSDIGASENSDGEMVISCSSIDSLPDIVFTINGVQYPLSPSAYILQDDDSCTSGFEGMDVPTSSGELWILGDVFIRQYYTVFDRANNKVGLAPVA
T2 sequence (P08473 whole entry): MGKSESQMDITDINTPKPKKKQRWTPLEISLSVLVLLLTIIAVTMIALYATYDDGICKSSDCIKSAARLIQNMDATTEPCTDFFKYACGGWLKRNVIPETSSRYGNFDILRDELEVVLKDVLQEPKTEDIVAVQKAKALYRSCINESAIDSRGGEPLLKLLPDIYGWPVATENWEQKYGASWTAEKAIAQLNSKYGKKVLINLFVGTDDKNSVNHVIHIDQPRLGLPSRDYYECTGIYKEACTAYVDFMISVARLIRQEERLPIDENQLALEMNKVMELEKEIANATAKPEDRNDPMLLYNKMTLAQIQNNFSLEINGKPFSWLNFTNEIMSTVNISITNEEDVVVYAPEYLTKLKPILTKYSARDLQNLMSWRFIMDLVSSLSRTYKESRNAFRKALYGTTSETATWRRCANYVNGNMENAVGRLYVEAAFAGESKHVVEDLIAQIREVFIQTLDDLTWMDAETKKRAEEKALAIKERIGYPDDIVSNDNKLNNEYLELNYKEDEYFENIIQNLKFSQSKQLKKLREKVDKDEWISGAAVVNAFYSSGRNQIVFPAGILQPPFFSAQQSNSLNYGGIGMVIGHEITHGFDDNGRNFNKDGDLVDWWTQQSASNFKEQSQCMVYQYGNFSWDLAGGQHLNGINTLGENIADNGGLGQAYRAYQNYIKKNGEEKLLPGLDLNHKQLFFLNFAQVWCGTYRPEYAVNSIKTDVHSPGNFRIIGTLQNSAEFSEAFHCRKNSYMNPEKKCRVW

CC[C@H](C)[C@H](NC(=O)[C@H](Cc1c[nH]c2ccccc12)NC(=O)[C@H](CCC(=O)O)NC(=O)[C@@H](NC(=O)[C@](C)(Cc1ccccc1)NC(=O)[C@H](CC(=O)O)NC(=O)[C@H](CCC(N)=O)NC(=O)[C@H](C)NC(=O)[C@H](C)NC(=O)[C@H](CCCCNC(=O)CC[C@H](NC(=O)CCCCCCCCCCCCCCCCC(=O)O)C(=O)O)NC(=O)[C@H](CO)NC(=O)[C@H](CC(=O)O)NC(=O)[C@H](CC(C)C)NC(=O)[C@](C)(Cc1ccccc1)NC(=O)[C@H](CCCCN)NC(=O)[C@H](CO)NC(=O)[C@@H](NC(=O)[C@H](CC(=O)O)NC(=O)[C@H](CO)NC(=O)[C@@H](NC(=O)[C@](C)(Cc1ccccc1)NC(=O)[C@H](CO)NC(=O)CNC(=O)[C@H](Cc1c[nH]cn1)NC(=O)C(C)(C)NC(=O)[C@@H](N)Cc1c[nH]cn1)[C@@H](C)O)C(C)C)C(C)C)C(=O)N[C@@H](C)C(=O)N[C@@H](CC(N)=O)C(=O)N[C@H](C(N)=O)[C@@H](C)O [Peptide 7] (H-H[Aib]HGS[αMeF]TSDVSK[αMeF]LDSK([γGlu-C18 diacid])AAQD[αMeF]VEWIANT-NH2; N-terminus assumed)
24 hr % Vehicle Food Intake (Male C57Bl/6 mice): 55.0%
remaining at 10 min, 125 µM [1]: 60%
% intact peptide over time, Neprilysin (neprilysin): 100%
WT % glucose change 120 min (wildtype (WT) mice): 5.4%

CC[C@H](C)[C@H](NC(=O)[C@H](Cc1ccccc1)NC(=O)[C@H](CCC(=O)O)NC(=O)[C@H](CCCCNC(=O)COCCOCCNC(=O)COCCOCCNC(=O)CC[C@H](NC(=O)CCCCCCCCCCCCCCCCC(=O)O)C(=O)O)NC(=O)[C@H](C)NC(=O)[C@H](C)NC(=O)[C@H](CCC(N)=O)NC(=O)CNC(=O)[C@H](CCC(=O)O)NC(=O)[C@H](CC(C)C)NC(=O)[C@H](Cc1ccc(O)cc1)NC(=O)[C@H](CO)NC(=O)[C@H](CO)NC(=O)[C@@H](NC(=O)[C@H](CC(=O)O)NC(=O)[C@H](CO)NC(=O)[C@@H](NC(=O)[C@H](Cc1ccccc1)NC(=O)[C@@H](NC(=O)CNC(=O)[C@H](CCC(=O)O)NC(=O)C(C)(C)NC(=O)[C@@H](N)Cc1cnc[nH]1)[C@@H](C)O)[C@@H](C)O)C(C)C)C(=O)N[C@@H](C)C(=O)N[C@@H](Cc1c[nH]c2ccccc12)C(=O)N[C@@H](CC(C)C)C(=O)N[C@H](C(=O)N[C@@H](CCCNC(=N)N)C(=O)NCC(=O)N[C@@H](CCCNC(=N)N)C(=O)NCC(=O)O)C(C)C [semaglutide, reference compound]
% intact peptide over time (min), FasSSGF [2]: 100%
% intact peptide over time (min), FasSSIF (Pancreatin): 100%

B1: Peptide 392 of Table 9 (peptide)
peptide: H[Aib]HGS[αMeF]TSDK([AEEA-AEEA-γGlu-C18 diacid])SK[αMeF]LDSRAAQD[αMeF]VQ[Aib]IANT-NH2
modifications: N-terminus assumed
SMILES: CC[C@H](C)[C@H](NC(=O)C(C)(C)NC(=O)[C@H](CCC(N)=O)NC(=O)[C@@H](NC(=O)[C@](C)(Cc1ccccc1)NC(=O)[C@H](CC(=O)O)NC(=O)[C@H](CCC(N)=O)NC(=O)[C@H](C)NC(=O)[C@H](C)NC(=O)[C@H](CCCNC(=N)N)NC(=O)[C@H](CO)NC(=O)[C@H](CC(=O)O)NC(=O)[C@H](CC(C)C)NC(=O)[C@](C)(Cc1ccccc1)NC(=O)[C@H](CCCCN)NC(=O)[C@H](CO)NC(=O)[C@H](CCCCNC(=O)COCCOCCNC(=O)COCCOCCNC(=O)CC[C@H](NC(=O)CCCCCCCCCCCCCCCCC(=O)O)C(=O)O)NC(=O)[C@H](CC(=O)O)NC(=O)[C@H](CO)NC(=O)[C@@H](NC(=O)[C@](C)(Cc1ccccc1)NC(=O)[C@H](CO)NC(=O)CNC(=O)[C@H](Cc1c[nH]cn1)NC(=O)C(C)(C)NC(=O)[C@@H](N)Cc1c[nH]cn1)[C@@H](C)O)C(C)C)C(=O)N[C@@H](C)C(=O)N[C@@H](CC(N)=O)C(=O)N[C@H](C(N)=O)[C@@H](C)O
hGLP-1R EC50 (pM) (human GLP-1 receptor [3]): 312 pM
hGluc-R EC50 (pM) (human glucagon receptor [4]): 6920 pM

H[Aib]QGTFTSDVSK[αMeF]LDTK([AEEA-AEEA-γGlu-C18 diacid])RAQDFVRWLLEAG-OH [Peptide 186]
hGLP-1R EC50 (pM), cAMP production (HTRF) (human GLP-1 receptor [5]): 44.9 pM
hGluc-R EC50 (pM), cAMP production (HTRF) (human glucagon receptor [6]): 101 pM

H[Aib]HGS[αMeF]TSDVSKKLDSRAAQD[αMeF]VQ[Aib]IANT-NH2 (not fully specified (residue 13)) [Peptide 406 of Table 10]
hGLP-1R EC50 (pM) (human GLP-1 receptor [7]): 458 pM
hGluc-R EC50 (pM) (human glucagon receptor [8]): 7310 pM
